Test [1] has as its target T1, Recombinant STAT6 protein (STAT6(W123-T658)) (Homo sapiens, UniProt P42226).
T1 construct: Recombinant STAT6 protein (STAT6(W123-T658))
T1 sequence (P42226 123-658): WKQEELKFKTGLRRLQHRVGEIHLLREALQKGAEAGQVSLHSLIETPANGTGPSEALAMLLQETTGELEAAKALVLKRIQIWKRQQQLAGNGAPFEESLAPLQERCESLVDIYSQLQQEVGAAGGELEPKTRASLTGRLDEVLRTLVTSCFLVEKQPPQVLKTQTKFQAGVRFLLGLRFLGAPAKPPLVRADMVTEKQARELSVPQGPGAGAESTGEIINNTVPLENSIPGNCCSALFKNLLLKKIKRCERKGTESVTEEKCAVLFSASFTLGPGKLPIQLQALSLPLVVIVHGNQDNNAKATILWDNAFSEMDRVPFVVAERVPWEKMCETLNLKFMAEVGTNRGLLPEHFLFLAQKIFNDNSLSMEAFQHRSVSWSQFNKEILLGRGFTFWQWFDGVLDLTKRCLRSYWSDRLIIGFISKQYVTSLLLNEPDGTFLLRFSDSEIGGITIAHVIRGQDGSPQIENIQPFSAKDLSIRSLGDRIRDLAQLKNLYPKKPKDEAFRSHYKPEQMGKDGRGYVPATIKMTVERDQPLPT
Description: STAT6 Fluorescence Polarization (FP) Assay. The note with it: STAT6(W123-T658) 250 nM, probe 5-FAM-ApYKPFQDLI-NH2 2 nM, 45-minute incubation. The class given is binding. The method in brief:
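Displacement of a fluorescent phosphotyrosine peptide (5-FAM-ApYKPFQDLI-NH2, 2 nM) from STAT6(W123-T658) (250 nM), 1% DMSO, pH 7.4 HEPES buffer. After 45 min at room temperature, polarization (mP) was plotted versus log compound concentration and fitted by nonlinear regression to give IC50.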
In general terms: In fluorescence polarisation assays a small probe gives low polarisation when free and higher when bound to something large.

The target of test [2] is T2, Recombinant STAT3 protein (STAT3(G127-I722)) (Homo sapiens, UniProt P40763).
T2 construct: Recombinant STAT3 protein (STAT3(G127-I722))
T2 sequence (P40763 127-722): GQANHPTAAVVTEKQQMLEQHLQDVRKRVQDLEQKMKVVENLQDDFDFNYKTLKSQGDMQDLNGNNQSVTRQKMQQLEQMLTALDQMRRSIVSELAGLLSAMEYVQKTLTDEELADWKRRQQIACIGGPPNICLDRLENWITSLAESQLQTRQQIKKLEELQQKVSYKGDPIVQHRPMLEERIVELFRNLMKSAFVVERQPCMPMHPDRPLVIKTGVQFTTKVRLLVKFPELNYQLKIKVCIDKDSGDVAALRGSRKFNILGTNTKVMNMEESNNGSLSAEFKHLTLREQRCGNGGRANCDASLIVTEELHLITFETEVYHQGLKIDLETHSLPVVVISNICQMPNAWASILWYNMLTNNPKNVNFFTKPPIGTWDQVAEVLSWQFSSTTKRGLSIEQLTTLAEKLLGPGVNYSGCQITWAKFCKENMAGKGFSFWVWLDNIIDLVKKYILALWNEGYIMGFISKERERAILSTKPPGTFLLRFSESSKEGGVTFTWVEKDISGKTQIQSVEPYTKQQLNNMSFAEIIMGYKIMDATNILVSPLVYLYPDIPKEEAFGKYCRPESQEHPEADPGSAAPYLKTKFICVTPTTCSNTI
Description: STAT3 Fluorescence Polarization (FP) Assay. It is filed as binding. The following applies: STAT3(G127-I722) 25 nM, probe 5-FAM-GpYLPQTV-NH2 2 nM, 45-minute incubation. The method in brief:
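Fluorescence polarization after a 45-min room-temperature incubation measured compound displacement of a 2 nM fluorescein-labelled phosphotyrosine peptide (5-FAM-GpYLPQTV-NH2) from 25 nM recombinant STAT3(G127-I722). Buffer was 10 mM HEPES pH 7.4 with 1% DMSO final. IC50s were fitted by nonlinear regression of mP against log concentration.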

This note sets out measurements from patent US20250179103A1, “6-OXODECAHYDROPYRROLO[1,2-A][1,5]DIAZOCINE AND 6-OXODECAHYDRO-4H-PYRROLO[2,1-D][1,5]THIAZOCINE DERIVATIVES AS STAT3 AND STAT6 MODULATORS FOR THE TREATMENT OF CANCER AND INFLAMMATORY CONDITIONS” (Recludix Pharma, Inc., priority 2022, published 2025).

In general, IC50 refers to the point on the concentration scale where inhibition reaches its midpoint. Turning to `CC(=O)N1CC[C@H]2CC[C@@H](C(=O)N3CCC(N(Cc4noc(C5CC5)n4)C(C)=O)C3)N2C(=O)[C@@H](NC(=O)c2cc3cc(C(F)(F)P(=O)(O)O)ccc3s2)C1` (stereo partly drawn) [Compound 85, ((2-(((5S,8S,10aR)-3-acetyl-8-(3-(N-((5-cyclopropyl-1,2,4-oxadiazol-3-yl)methyl)acetamido)pyrrolidine-1-carbonyl)-6-oxodecahydropyrrolo[1,2-a][1,5]diazocin-5-yl)carbamoyl)benzo[b]thiophen-5-yl)difluoromethyl)phosphonic acid], the values for the IC50 in test [1] and in test [2] were 0.3 to 3 µM and 1 to 10 µM, respectively.

As to `CC(=O)N1CC[C@H]2CC[C@@H](C(=O)N3Cc4cnn(-c5ccccc5)c4C3)N2C(=O)[C@@H](NC(=O)c2cc3cc(C(F)(F)P(=O)(O)O)ccc3s2)C1` [Compound 86, ((2-(((5S,8S,10aR)-3-acetyl-6-oxo-8-(1-phenyl-1,4,5,6-tetrahydropyrrolo[3,4-c]pyrazole-5-carbonyl)decahydropyrrolo[1,2-a][1,5]diazocin-5-yl)carbamoyl)benzo[b]thiophen-5-yl)difluoromethyl)phosphonic acid], the IC50 in test [1] was 0.3 to 3 µM; in test [2], at most 0.1 µM.

For `CC(=O)N1CC[C@H]2CC[C@@H](C(=O)N3Cc4cnn(-c5ncccn5)c4C3)N2C(=O)[C@@H](NC(=O)c2cc3cc(C(F)(F)P(=O)(O)O)ccc3s2)C1` [Compound 87, ((2-(((5S,8S,10aR)-3-acetyl-6-oxo-8-(1-(pyrimidin-2-yl)-1,4,5,6-tetrahydropyrrolo[3,4-c]pyrazole-5-carbonyl)decahydropyrrolo[1,2-a][1,5]diazocin-5-yl)carbamoyl)benzo[b]thiophen-5-yl)difluoromethyl)phosphonic acid], the figures for the concentration for half-maximal inhibition (IC50) in test [1] and in test [2] were 0.3 to 3 µM and 1 to 10 µM, respectively.

As for `CC(=O)N1CC[C@H]2CC[C@@H](C(=O)N3CC(C#N)(c4ccccn4)C3)N2C(=O)[C@@H](NC(=O)c2cc3cc(C(F)(F)P(=O)(O)O)ccc3s2)C1` [Compound 88, ((2-(((5S,8S,10aR)-3-acetyl-8-(3-cyano-3-(pyridin-2-yl)azetidine-1-carbonyl)-6-oxodecahydropyrrolo[1,2-a][1,5]diazocin-5-yl)carbamoyl)benzo[b]thiophen-5-yl)difluoromethyl)phosphonic acid], the IC50 in test [1] was 0.3 to 3 µM; in test [2], at most 0.1 µM.

With `CC(=O)N1CC[C@H]2CC[C@@H](C(=O)N(C)CC(C)C#N)N2C(=O)[C@@H](NC(=O)c2cc3cc(C(F)(F)P(=O)(O)O)ccc3s2)C1` (stereo partly drawn) [Compound 89, ((2-(((5S,8S,10aR)-3-acetyl-8-((2-cyanopropyl)(methyl)carbamoyl)-6-oxodecahydropyrrolo[1,2-a][1,5]diazocin-5-yl)carbamoyl)benzo[b]thiophen-5-yl)difluoromethyl)phosphonic acid], the IC50 fell in the range of 0.3 to 3 µM in test [1] and 1 to 10 µM in test [2].

Take `CC(=O)N1CC[C@H]2CC[C@@H](C(=O)N(C)CCC#N)N2C(=O)[C@@H](NC(=O)c2cc3cc(C(F)(F)P(=O)(O)O)ccc3s2)C1` [Compound 90, ((2-(((5S,8S,10aR)-3-acetyl-8-((2-cyanoethyl)(methyl)carbamoyl)-6-oxodecahydropyrrolo[1,2-a][1,5]diazocin-5-yl)carbamoyl)benzo[b]thiophen-5-yl)difluoromethyl)phosphonic acid]: the results for the IC50 in test [1] and in test [2] were 0.3 to 3 µM and 1 to 10 µM, respectively.

As to `CC(=O)N1CC[C@H]2CC[C@@H](C(=O)N(C)CC(C)(C)O)N2C(=O)[C@@H](NC(=O)c2cc3cc(C(F)(F)P(=O)(O)O)ccc3s2)C1` [Compound 91, ((2-(((5S,8S,10aR)-3-acetyl-8-((2-hydroxy-2-methylpropyl)(methyl)carbamoyl)-6-oxodecahydropyrrolo[1,2-a][1,5]diazocin-5-yl)carbamoyl)benzo[b]thiophen-5-yl)difluoromethyl)phosphonic acid], the figures for the IC50 in test [1] and in test [2] were 0.3 to 3 µM and 1 to 10 µM, respectively.

`CC(=O)N1CC[C@H]2CC[C@@H](C(=O)N(C)CC(C)(C)C#N)N2C(=O)[C@@H](NC(=O)c2cc3cc(C(F)(F)P(=O)(O)O)ccc3s2)C1` [Compound 92, ((2-(((5S,8S,10aR)-3-acetyl-8-((2-cyano-2-methylpropyl)(methyl)carbamoyl)-6-oxodecahydropyrrolo[1,2-a][1,5]diazocin-5-yl)carbamoyl)benzo[b]thiophen-5-yl)difluoromethyl)phosphonic acid]: the IC50 lay within 0.3 to 3 µM in test [1] and 1 to 10 µM in test [2].

With `CC(=O)N1CC[C@H]2CC[C@@H](C(=O)N(C)C3CCN(S(C)(=O)=O)CC3)N2C(=O)[C@@H](NC(=O)c2cc3cc(C(F)(F)P(=O)(O)O)ccc3s2)C1` [Compound 93, ((2-(((5S,8S,10aR)-3-acetyl-8-(methyl(1-(methylsulfonyl)piperidin-4-yl)carbamoyl)-6-oxodecahydropyrrolo[1,2-a][1,5]diazocin-5-yl)carbamoyl)benzo[b]thiophen-5-yl)difluoromethyl)phosphonic acid], the IC50 was in the range of 0.3 to 3 µM in test [1] and 1 to 10 µM in test [2].

Regarding `CC(=O)N1CC[C@H]2CC[C@@H](C(=O)Nc3cnc(S(C)(=O)=O)nc3)N2C(=O)[C@@H](NC(=O)c2cc3cc(C(F)(F)P(=O)(O)O)ccc3s2)C1` [Compound 94, ((2-(((5S,8S,10aR)-3-acetyl-8-((2-(methylsulfonyl)pyrimidin-5-yl)carbamoyl)-6-oxodecahydropyrrolo[1,2-a][1,5]diazocin-5-yl)carbamoyl)benzo[b]thiophen-5-yl)difluoromethyl)phosphonic acid], the 50% inhibitory concentration (IC50) in test [1] was 0.3 to 3 µM; in test [2], 1 to 10 µM.

Consider `CC(=O)N1CC[C@H]2CC[C@@H](C(=O)N3CCC(Oc4ccncc4)C3)N2C(=O)[C@@H](NC(=O)c2cc3cc(C(F)(F)P(=O)(O)O)ccc3s2)C1` (stereo partly drawn) [Compound 95, ((1-(((5S,8S,10aR)-3-acetyl-6-oxo-8-(3-(pyridin-4-yloxy)pyrrolidine-1-carbonyl)decahydropyrrolo[1,2-a][1,5]diazocin-5-yl)carbamoyl)benzo[b]thiophen-5-yl)difluoromethyl)phosphonic acid], for which the IC50 in test [1] is 0.3 to 3 µM; in test [2], 0.1 to 1 µM.

Turning to `CC(=O)N1CC[C@H]2CC[C@@H](C(=O)N(C)c3ccc(-c4ccccc4)cc3)N2C(=O)[C@@H](NC(=O)c2cc3cc(C(F)(F)P(=O)(O)O)ccc3s2)C1` [Compound 96, ((2-(((5S,8S,10aR)-8-([1,1′-biphenyl]-4-yl(methyl)carbamoyl)-3-acetyl-6-oxodecahydropyrrolo[1,2-a][1,5]diazocin-5-yl)carbamoyl)benzo[b]thiophen-5-yl)difluoromethyl)phosphonic acid], the IC50 in test [1] was at most 0.3 µM; in test [2] it was 1 to 10 µM.

As for `CC(=O)N1CC[C@H]2CC[C@@H](C(=O)N3CC[C@@H](c4ccccc4)C3)N2C(=O)[C@@H](NC(=O)c2cc3cc(C(F)(F)P(=O)(O)O)ccc3s2)C1` [Compound 97, ((2-(((5S,8S,10aR)-3-acetyl-6-oxo-8-((S)-3-phenylpyrrolidine-1-carbonyl)decahydropyrrolo[1,2-a][1,5]diazocin-5-yl)carbamoyl)benzo[b]thiophen-5-yl)difluoromethyl)phosphonic acid], the IC50 was at most 0.3 µM in test [1] and 0.1 to 1 µM in test [2].
